Measured values published in US9469615B2, “Quinoxalines and AZA-quinoxalines as CRTH2 receptor modulators” (Merck Sharp & Dohme Corp., priority 2010, dated 2016).

target: T1, hCRTH2 (Homo sapiens, UniProt Q9Y5Y4); assay: Radioligand binding assay ([3H]PGD2 competition, HEK-hCRTH2 membranes); conditions: [3H]PGD2 binding, rated A-E (Table A)
T1 construct: expressed in transfected cells; host or cells: HEK (human embryonic kidney) cells expressing hCRTH2; membrane preparation
T1 sequence (Q9Y5Y4 1-395): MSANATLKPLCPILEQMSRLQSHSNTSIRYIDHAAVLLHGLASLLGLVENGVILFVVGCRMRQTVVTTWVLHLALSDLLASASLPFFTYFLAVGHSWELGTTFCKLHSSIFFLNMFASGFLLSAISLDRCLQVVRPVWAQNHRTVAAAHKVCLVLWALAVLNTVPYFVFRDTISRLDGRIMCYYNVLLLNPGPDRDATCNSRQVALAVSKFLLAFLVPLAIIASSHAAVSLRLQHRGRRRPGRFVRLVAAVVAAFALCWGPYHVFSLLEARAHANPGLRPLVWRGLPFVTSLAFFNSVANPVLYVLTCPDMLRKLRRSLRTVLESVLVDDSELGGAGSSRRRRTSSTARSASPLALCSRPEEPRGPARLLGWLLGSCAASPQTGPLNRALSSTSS
Outline: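 Competition against 3.0 nM [3H]PGD2 was run for 60 min at room temperature in pH 7.4 Tris-HCl buffer with EDTA, 2 mM MnCl2 and 1% DMSO, using 8-20 μg HEK-hCRTH2 membrane protein. 10 μM PGD2 set non-specific binding; filter-bound counts were read by scintillation.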

Row | Structure (SMILES) | Ki [nM]
1 | N#Cc1ccc(-c2nc3ccc(C(=O)N4CCC(c5ccccc5)CC4)cc3nc2CCCCC(=O)O)cc1 [26P, 3-(4-cyanophenyl)-7-[(4-phenyl-1-piperidinyl)carbonyl]-2-quinoxalinepentanoic acid] | 2.1 to 20
2 | O=C(O)Cc1cccc(CCc2nc3cc(C(=O)N4CCC(c5ccccc5)CC4)ccc3nc2-c2ccc(F)cc2)c1 [compound 198, 3-[2-[3-(4-fluorophenyl)-7-[(4-phenyl-1-piperidinyl)carbonyl]-2-quinoxalinyl]ethyl] benzeneacetic acid] | 2.1 to 20
3 | O=C(O)Cc1cccc(CCCc2nc3cc(C(=O)N4CCC(c5ccccc5)CC4)ccc3nc2-c2ccc(Cl)cc2)c1 [compound 32, 2-(3-(3-(3-(4-chlorophenyl)-7-(4-phenylpiperidine-1-carbonyl)quinoxalin-2-yl)propyl)phenyl)acetic acid] | 2.1 to 20
4 | O=C(O)CCCCc1nc2cc(C(=O)NCc3ccc(Cl)cc3)ccc2nc1-c1ccc(Cl)cc1 [compound 16] | 0.1 to 2
5 | COC(=O)c1ccc2nc(-c3ccccc3)c(OCCCC(=O)O)nc2c1 [compound 9, 4-{[7-(Methoxycarbonyl)-3-phenylquinoxalin-2-yl]oxy}butanoic Acid] | 2.1 to 20
6 | O=C(O)CCCCc1nc2cc(C(=O)N3CCC(n4c(=O)[nH]c5ccccc54)CC3)ccc2nc1-c1ccccc1 [compound 117, 7-[[4-(2,3-dihydro-2-oxo-1H-benzimidazol-1-yl)-1-piperidinyl]carbonyl]-3-phenyl-2-quinoxalinepentanoic acid] | 2.1 to 20
7 | CC(CCc1nc2cc(C(=O)N[C@H](c3ccccc3)C(F)(F)F)ccc2nc1-c1ccc(Cl)cc1)CC(=O)O (stereo partly drawn) [17N, 3-(4-chlorophenyl)-beta-methyl-7-[[(2,2,2-trifluoro-1(R)-phenylethyl)amino]carbonyl]-2-quinoxalinepentanoic acid] | 2.1 to 20

Next, values leading:

Row | Ki [nM] | Structure (SMILES)
8 | 0.1 to 2 | O=C(O)CCCCc1nc2cc(C(=O)N3CCC(c4ccccc4)C3)ccc2nc1-c1ccc(F)cc1 (stereo not shown) [compound 106, 3-(4-fluorophenyl)-7-[(3-phenyl-1-pyrrolidinyl)carbonyl]-2-quinoxalinepentanoic acid]
9 | 2.1 to 20 | C[C@@H](NC(=O)c1ccc2nc(-c3ccccc3)c(CCCCC(=O)O)nc2c1)c1ccc(F)cc1 [compound 234, 7-[[[1(R)-(4-fluorophenyl)ethyl]amino]carbonyl]-3-phenyl-2-quinoxalinepentanoic acid]
10 | 2.1 to 20 | C[C@H](c1ccc(F)cc1)N(C)C(=O)c1ccc2nc(-c3ccccc3)c(CCCCC(=O)O)nc2c1 [compound 236, 7-[[[1(R)-(4-fluorophenyl)ethyl]methylamino]carbonyl]-3-phenyl-2-quinoxalinepentanoic acid]
11 | 0.1 to 2 | O=C(O)CCCCc1nc2cc(C(=O)N[C@@H]3CCCc4ccccc43)ccc2nc1-c1ccc(F)cc1 [compound 217, 3-(4-fluorophenyl)-7-[[(1,2,3,4-tetrahydro-1(R)-naphthalenyl)amino]carbonyl]-2-quinoxalinepentanoic acid]
12 | 2.1 to 20 | O=C(O)CCCCc1nc2cc(C(=O)NCc3cc(Cl)cc(Cl)c3)ccc2nc1-c1ccc(F)cc1 [compound 108, 7-[[[(3,5-dichlorophenyl)methyl]amino]carbonyl]-3-(4-fluorophenyl)-2-quinoxalinepentanoic acid]
13 | 2.1 to 20 | CNC(=O)c1ccc2nc(-c3ccc(F)cc3)c(CCCCC(=O)O)nc2c1 [compound 7, 3-(4-fluorophenyl)-7-[(methylamino)carbonyl]-2-quinoxalinepentanoic acid]
14 | 20.1 to 200 | C[C@H](NC(=O)c1ccc2nc(-c3ccc(F)cc3)c(CCc3cccc(CC(=O)O)c3)nc2c1)c1ccc(F)cc1 [compound 196]
15 | 2.1 to 20 | CC(NC(=O)c1ccc2nc(-c3ccc(C(F)(F)F)cc3)c(CCCCC(=O)O)nc2c1)c1ccc(-c2ccccc2)cc1 (single isomer, unassigned) [4F, 7-[[(1-[1,1′-biphenyl]-4-ylethyl)amino]carbonyl]-3-[4-(trifluoromethyl)-phenyl]-2-quinoxaline-pentanoic acid]
16 | 0.1 to 2 | O=C(O)CCCCc1nc2cc(C(=O)N[C@H](c3ccc(Cl)cc3)C(F)(F)F)ccc2nc1-c1ccc(Cl)cc1 [16V, 3-(4-chlorophenyl)-7-[[[1(R)-(4-chlorophenyl)-2,2,2-trifluoroethyl]amino]carbonyl]-2-quinoxalinepentanoic acid]

same assay, conditions: [3H]PGD2 binding, values in text

Row | Ki [nM] | Structure (SMILES)
17 | 1.2 | O=C(O)CCCCc1nc2cc(C(=O)N[C@@H]3CCCc4ccccc43)ccc2nc1-c1ccc(F)cc1 [compound 217, 3-(4-fluorophenyl)-7-[[(1,2,3,4-tetrahydro-1(R)-naphthalenyl)amino]carbonyl]-2-quinoxalinepentanoic acid]
18 | 2.7 | O=C(O)CCCCc1nc2cc(C(=O)N[C@H](c3ccc(Cl)cc3)C(F)(F)F)ccc2nc1-c1ccc(Cl)cc1 [16V, 3-(4-chlorophenyl)-7-[[[1(R)-(4-chlorophenyl)-2,2,2-trifluoroethyl]amino]carbonyl]-2-quinoxalinepentanoic acid]

same assay, conditions: [3H]PGD2 competition, Table B

Row | Structure (SMILES) | Ki [nM]
19 | O=C(O)Cc1cc(F)cc(CCc2nc3cc(C(=O)N4CC(c5ccc(F)c(F)c5)C4)ccc3nc2-c2ccc(Cl)cc2)c1 [compound 452, 2-(3-(2-(3-(4-chlorophenyl)-7-(3-(3,4-difluorophenyl)azetidine-l-carbonyl)quinoxalin-2-yl)ethyl)-5-fluorophenyl) aceticacid] | 2.1 to 20
20 | C[C@@H](CCCc1nc2cc(C(=O)N[C@@H]3CCCc4ccccc43)ccc2nc1-c1ccc(F)cc1)C(=O)O [compound 482, (S)-5-(3-(4-fluorophenyl)-7-(((R)-1,2,3,4-tetrahydronaphthalen-1-yl)carbamoyl)quinoxalin-2-yl)-2-methylpentanoic acid] | 2.1 to 20
21 | O=C(O)CCCCc1nc2cc(C(=O)N3Cc4ccccc4C3)ccc2nc1-c1ccc(Cl)cc1 [compound 607, 5-(3-(4-chlorophenyl)-7-(isoindoline-2-carbonyl)quinoxalin-2-yl)pentanoic acid] | 0.1 to 2
22 | Cc1nonc1C1CCCN1C(=O)c1ccc2nc(-c3ccc(Cl)cc3)c(CCCCC(=O)O)nc2c1 (stereo not shown) [compound 652, 5-(3-(4-chlorophenyl)-7-(2-(4-methyl-1,2,5-oxadiazol-3-yl)pyrrolidine-1-carbonyl)quinoxalin-2-yl)pentanoic acid] | 2.1 to 20
23 | C[C@@H]1CN(c2ccccc2)CCN1C(=O)c1ccc2nc(-c3ccc(Cl)cc3)c(CCCCC(=O)O)nc2c1 [compound 498, (R)-5-(3-(4-chlorophenyl)-7-(2-methyl-4-phenyl-piperazine-1-carbonyl)quinoxalin-2-yl)pentanoic acid] | 2.1 to 20
24 | O=C(N[C@@H]1CCCc2cc(F)ccc21)c1ccc2nc(-c3ccc(F)cc3)c(CCCC(F)(F)C(=O)O)nc2c1 [compound 465, (R)-2,2-difluoro-5-(7-((6-fluoro-1,2,3,4-tetrabydronaphthalen-1-yl)carbamoyl)-3-(4-fluorophenyl)quinoxalin-2-yl)pentanoic acid] | 2.1 to 20
25 | O=C(O)CCCCc1nc2cc(C(=O)N3CCN(c4nc5ccccc5o4)CC3)ccc2nc1-c1ccc(Cl)cc1 [compound 701, 5-(7-(4-(benzo[d]oxazol-2-yl)piperazine-1-carbonyl)-3-(4-chlorophenyl)quinoxalin-2-yl)pentanoic acid] | 2.1 to 20
26 | O=C(O)CCCCc1nc2cc(C(=O)N3CCN(c4ccccc4C(F)(F)F)CC3)ccc2nc1-c1ccccc1 [compound 305, 5-(3-phenyl-7-(4-(2-(trifluoromethyl)phenyl)piperazine-1-carbonyl)quinoxalin-2-yl)pentanoic acid] | 2.1 to 20
27 | C[C@@H](CCCc1nc2cc(C(=O)N[C@@H]3CCc4cc(Cl)ccc43)ccc2nc1-c1ccc(F)cc1)C(=O)O [compound 522, (S)-5-(7-(((R)-5-chloro-2,3-dihydro-1H-inden-1-yl)carbamoyl)-3-(4-fluorophenyl)quinoxalin-2-yl)-2-methylpentanoic acid] | 2.1 to 20
28 | O=C(O)CCCCc1nc2cc(C(=O)N3C[C@H]4C[C@@H]3CN4C(=O)OCc3ccccc3)ccc2nc1-c1ccc(Cl)cc1 [compound 699, 5-(7-((1R,4R)-5-((benzyloxy)carbonyl)-2,5-diazabicyclo[2.2.1]heptane-2-carbonyl)-3-(4-chlorophenyl)quinoxalin-2-yl)pentanoic acid] | 2.1 to 20
29 | O=C(O)CCCCc1nc2cc(C(=O)N3CCN(c4ccc(C(F)(F)F)cn4)CC3)ccc2nc1-c1ccc(Cl)cc1 [compound 599, 5-(3-(4-chlorophenyl)-7-(4-(5-yl)piperazine-1-carbonyl)quinoxalin-2-yl)pentanoic acid] | 0.1 to 2

More lines, now with the values ahead:

Row | Ki [nM] | Structure (SMILES)
30 | 0.1 to 2 | O=C(O)CCCCc1nc2cc(C(=O)N[C@@H]3CCOc4cc(F)ccc43)ccc2nc1-c1ccccc1 [compound 643, (R)-5-(7-((7-fluoro-chroman-4-yl)carbamoyl)-3-phenylquinoxalin-2-yl)pentanoic acid]
31 | 0.1 to 2 | O=C(O)CCCCc1nc2cc(C(=O)N[C@H]3COc4ccccc43)ccc2nc1-c1ccc(Cl)cc1 [compound 562, (R)-5-(3-(4-chlorophenyl)-7-((2,3-dihydrobenzofuran-3-yl)carbamoyl)quinoxalin-2-yl)pentanoic acid]
32 | 2.1 to 20 | O=C(O)CCCCc1nc2cc(C(=O)N[C@H]3CCCc4cc(Cl)ccc43)ccc2nc1-c1ccccc1 [compound 387, (S)-5-(7-((6-chloro-1,2,3,4-tetrahydronaphthalen-1-yl)carbamoyl)-3-phenylquinoxalin-2-yl)pentanoic acid]
33 | 2.1 to 20 | C[C@@H](NC(=O)c1ccc2nc(-c3ccccc3)c(CCCCC(=O)O)nc2c1)c1ccc(F)cn1 [compound 473, (R)-5-(7-((1-(5-fluoropyridin-2-yl)ethyl)carbamoyl)-3-phenylquinoxalin-2-yl)pentanoic acid]
34 | 0.1 to 2 | O=C(O)CCCCc1nc2cc(C(=O)N[C@@H]3CCOc4ccccc43)ccc2nc1-c1ccccc1 [compound 512, (R)-5-(7-(chroman-4-ylcarbamoyl)-3-phenylquinoxalin-2-yl)pentanoic acid]
